Test results: patent publication US20230044304A1, “Nitric oxide generation, dilution, analysis, and topical application compositions, systems, apparatus and methods” (SYK Technologies LLC, priority 2010, published 2023)
Entries after “also recorded” stand apart in the source; their conditions may differ.

Key:
[1] = system: bacteria on a surface, such as a person's skin; test: Nitric oxide dose required to kill bacteria on a surface
[2] = system: bacteria on skin of hands; test: Hand exposed to nitric oxide gas in a bag versus DIAL antibacterial soap, zone dilution plating; assay type: in vivo, human
From the text: An experiment 46 used to determine the anti-microbial effectiveness of nitric oxide is illustrated in FIG. 72. In the experiment, five volunteers were selected 48. From a first hand of each volunteer, a technician using sterile gloves collected 50 a sample. This was accomplished by rubbing the back of the volunteer's hand with a sterile cotton collection swab for ten seconds. The swab was then applied 52 to a nutrient agar petri dish using the five corner or zone dilution method.
The five corner or zone dilution method involves mechanically diluting bacteria on a streak (blood agar) plate by sequentially spreading the bacteria across the plate in each of five zones. As the concentration of bacteria increases so do the number of zones containing bacteria. Bacteria on agar plate become visible as distinct circular colonies. Each colony represents an individual cell which has divided repeatedly to form a patch. The number of bacteria can be estimated by counting the number of patches or how far the bacteria is diluted by streaking it on the agar plate through the five zones.
After the sample was collected 50, the first hand was cleaned 54 using nitric oxide. This was done by placing the hand of the volunteer into a one-gallon plastic freezer bag. The bag was then inflated with nitric oxide through tubing attached to a portable nitric oxide generator. […]

[N]=O [nitric oxide]
dose required to kill bacteria on a surface [1]: ≥ 320 ppm
bacterial colony count compared with washing with antibacterial soap ([2]; 1,000 ppm nitric oxide for fifteen minutes versus DIAL antibacterial soap for 2 minutes, five volunteers): superior to soaps; also recorded: lower bacterial colony count
colony counts of bacteria exposed to nitric oxide ([2]; experiments by applicant on healthy skin): substantial reductions in colony counts
